pIC50: −log10 of the molar value.

The term pIC50 denotes −log10 of the IC50, conventionally taken in molar units.

One experiment addresses T1, STAT3 (Homo sapiens, UniProt P40763).
T1 construct: endogenous in cells; host or cells: MOLM-16 (acute leukemia cells)
In words: Fluorescent immunoblotting of STAT3 protein in MOLM-16 cells (estimated DC50). The following applies: MOLM-16, 4 h. It is filed as cell-based. The protocol: In vitro cultured cells or xenograft tumors were lysed 1×Cell Lysis Buffer (Cell Signaling Technology, #9803), resolved by SDS-PAGE NuPAGE gel (Thermo Fisher Scientific), and transferred to a PVDF membrane (Bio Rad). For chemiluminescence immunoblotting, membranes were blocked for 1 h using 5% Blotting-Grade Blocker (#1706404, Bio Rad) in 1×Tris-buffered saline with Tween 20 (TBST, Pierce). Antibodies used were: rabbit mAbs for STAT3 (Cell Signaling Technology, #4368, #12640) and p-STAT3 (Y705) (Cell Signaling Technology, #9245, #52075). HRP conjugated goat anti-rabbit IgG (H+L) (#A27036) secondary antibodies was from Thermo Fisher Scientific. GAPDH (Santa Cruz Technology, sc-47724HRP) and actin (Santa Cruz Technology, sc-8432HRP, sc-47778HRP) were loading controls. For fluorescent immunoblotting, membranes were blocked using Odyssey TBS Blocker Buffer (LI-COR). IRDye 680RD and 800CW Dye-labeled secondary antibodies (LI-COR) were used. The washed membranes were scanned using Odyssey CLx imager (LI-COR). The intensity of Western blot signaling was quantitated using the Odyssey software or Image Studio V5.2 (LI-COR).

For the next experiment, the system named is MOLM-16 cells. The experiment can be described thus: Cell growth inhibition, 4-day proliferation assay (CellTiter-Glo). It counts as cell-based. The following applies: MOLM16, 96 h; MOLM-16, 4 days. As for the experimental part: The effect of representative Compounds of the Disclosure on cell viability was determined in a 4-day proliferation assay. Cells were maintained in the appropriate culture medium at 37° C. and an atmosphere of 5% CO2. All the cell lines were used within three months of thawing fresh vials. Cells were seeded in 384-well white plates (Corning Costar) at a density of 2,000 cells/well in 25 μl of culture medium. Compounds were serially diluted in the appropriate medium, and 25 μl of the diluted compounds were added to the cells. After the addition of compounds, the cells were incubated at 37° C. in an atmosphere of 5% CO2 for 4 days. Cell viability was determined using the CellTiter-Glo® Luminescent Cell Viability Assay Kit (Promega, Madison, WI) according to the manufacturers' instructions. Essentially, 50 μl of CellTiter-Glo® Reagent was added to each well, and then the plates were incubated at room temperature for 20 minutes. The luminescent signal was measured using a Tecan multimode microplate reader (Tecan, Morrisville, NC). The readings were normalized to the DMSO-treated cells and the IC50 was calculated by nonlinear regression (four parameters sigmoid fitted with variable slope, least squares fit, and no constraint) analysis using the GraphPad Prism software.

T1 sequence (P40763 whole entry): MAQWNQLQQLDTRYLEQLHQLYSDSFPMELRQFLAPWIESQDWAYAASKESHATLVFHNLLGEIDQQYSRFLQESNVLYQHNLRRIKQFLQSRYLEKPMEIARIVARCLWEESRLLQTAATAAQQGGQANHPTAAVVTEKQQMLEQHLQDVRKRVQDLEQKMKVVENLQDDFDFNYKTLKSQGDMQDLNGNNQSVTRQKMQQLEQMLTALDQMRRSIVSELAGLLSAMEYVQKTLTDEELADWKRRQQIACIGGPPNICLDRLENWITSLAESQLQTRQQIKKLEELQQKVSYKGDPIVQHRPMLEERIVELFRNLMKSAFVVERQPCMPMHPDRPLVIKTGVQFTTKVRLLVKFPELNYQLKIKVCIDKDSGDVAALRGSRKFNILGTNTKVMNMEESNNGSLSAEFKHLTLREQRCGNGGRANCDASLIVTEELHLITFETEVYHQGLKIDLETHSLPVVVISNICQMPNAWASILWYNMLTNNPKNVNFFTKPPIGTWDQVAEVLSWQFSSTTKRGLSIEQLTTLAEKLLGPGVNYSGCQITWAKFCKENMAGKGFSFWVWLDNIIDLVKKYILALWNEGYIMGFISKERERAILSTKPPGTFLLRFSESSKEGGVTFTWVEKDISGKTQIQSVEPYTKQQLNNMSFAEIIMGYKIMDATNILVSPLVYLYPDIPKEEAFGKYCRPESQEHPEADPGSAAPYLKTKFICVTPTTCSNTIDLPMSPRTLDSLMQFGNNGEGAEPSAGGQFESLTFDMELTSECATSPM

Take `NC(=O)OC[C@H](NC(=O)[C@@H]1CC[C@@H]2CCN(C(=O)CCCCCC#Cc3cccc4c3CN(C3CCC(=O)NC3=O)C4=O)C[C@H](NC(=O)c3cc4cc(C(F)(F)P(=O)(O)O)ccc4s3)C(=O)N21)c1ncc(-c2ccccc2)s1` (stereo partly drawn) [Cpd. No. 8, ((2-(((5S,8S,10aR)-8-(((S)-2-(carbamoyloxy)-1-(5-phenylthiazol-2-yl)ethyl)carbamoyl)-3-(8-(2-(2,6-dioxopiperidin-3-yl)-1-oxoisoindolin-4-yl)oct-7-ynoyl)-6-oxodecahydropyrrolo[1,2-a][1,5]diazocin-5-yl)carbamoyl)benzo[b]thiophen-5-yl)difluoromethyl)phosphonic acid]: the DC50 on STAT3 is 100 nM. The compound further had a negative-log IC50 (pIC50) in the experiment with MOLM-16 cells of 7.89.

As for `NC(=O)CC[C@H](NC(=O)[C@@H]1CC[C@@H]2CCN(C(=O)CCCCCC#Cc3cccc4c3CN(C3CCC(=O)NC3=O)C4=O)C[C@H](NC(=O)c3cc4cc(C(F)(F)P(=O)(O)O)ccc4s3)C(=O)N21)c1nc(-c2ccc(F)c(F)c2)cs1` (stereo partly drawn) [Cpd. No. 11, ((2-(((5S,8S,10aR)-8-(((S)-4-amino-1-(4-(3,4-difluorophenyl)thiazol-2-yl)-4-oxobutyl)carbamoyl)-3-(8-(2-(2,6-dioxopiperidin-3-yl)-1-oxoisoindolin-4-yl)oct-7-ynoyl)-6-oxodecahydropyrrolo[1,2-a][1,5]diazocin-5-yl)carbamoyl)benzo[b]thiophen-5-yl)difluoromethyl)phosphonic acid], the DC50 on STAT3 is 100 nM.

As to `NC(=O)CC[C@H](NC(=O)[C@@H]1CC[C@@H]2CCN(C(=O)CCCCCC#Cc3cccc4c3CN(C3CCC(=O)NC3=O)C4=O)C[C@H](NC(=O)c3cc4cc(C(F)(F)P(=O)(O)O)ccc4s3)C(=O)N21)c1nc(-c2ccc(F)c(Cl)c2)cs1` (stereo partly drawn) [Cpd. No. 14, ((2-(((5S,8S,10aR)-8-(((S)-4-amino-1-(4-(3-chloro-4-fluorophenyl)thiazol-2-yl)-4-oxobutyl)carbamoyl)-3-(8-(2-(2,6-dioxopiperidin-3-yl)-1-oxoisoindolin-4-yl)oct-7-ynoyl)-6-oxodecahydropyrrolo[1,2-a][1,5]diazocin-5-yl)carbamoyl)benzo[b]thiophen-5-yl)difluoromethyl)phosphonic acid], at STAT3, the DC50 is 50 nM. In the experiment on MOLM-16 cells, the pIC50 was 7.43.

Regarding `CC(C)(C)c1ccc(-c2cnc([C@H](CCC(N)=O)NC(=O)[C@@H]3CC[C@@H]4CCN(C(=O)CCCCCC#Cc5cccc6c5CN(C5CCC(=O)NC5=O)C6=O)C[C@H](NC(=O)c5cc6cc(C(F)(F)P(=O)(O)O)ccc6s5)C(=O)N43)s2)cc1` (stereo partly drawn) [Cpd. No. 17, ((2-(((5S,8S,10aR)-8-(((S)-4-amino-1-(5-(4-(tert-butyl)phenyl)thiazol-2-yl)-4-oxobutyl)carbamoyl)-3-(8-(2-(2,6-dioxopiperidin-3-yl)-1-oxoisoindolin-4-yl)oct-7-ynoyl)-6-oxodecahydropyrrolo[1,2-a][1,5]diazocin-5-yl)carbamoyl)benzo[b]thiophen-5-yl)difluoromethyl)phosphonic acid], at STAT3, the DC50 is 200 nM.

As to `NC(=O)CC[C@H](NC(=O)[C@@H]1CC[C@@H]2CCN(C(=O)CCCCCC#Cc3cccc4c3CN(C3CCC(=O)NC3=O)C4=O)C[C@H](NC(=O)c3cc4cc(C(F)(F)P(=O)(O)O)ccc4s3)C(=O)N21)c1nc(Cc2ccccc2)cs1` (stereo partly drawn) [Cpd. No. 3, ((2-(((5S,8S,10aR)-8-(((S)-4-amino-1-(4-benzylthiazol-2-yl)-4-oxobutyl)carbamoyl)-3-(8-(2-(2,6-dioxopiperidin-3-yl)-1-oxoisoindolin-4-yl)oct-7-ynoyl)-6-oxodecahydropyrrolo[1,2-a][1,5]diazocin-5-yl)carbamoyl)benzo[b]thiophen-5-yl)difluoromethyl)phosphonic acid], the DC50 at STAT3 was 100 nM. In the experiment on MOLM-16 cells, this compound showed a pIC50 of 6.77.

For the compound `NC(=O)CC[C@H](NC(=O)[C@@H]1CC[C@@H]2CCN(C(=O)CCCCCC#Cc3cccc4c3CN(C3CCC(=O)NC3=O)C4=O)C[C@H](NC(=O)c3cc4cc(C(F)(F)P(=O)(O)O)ccc4s3)C(=O)N21)c1nc(-c2ccccc2)cs1` (stereo partly drawn) [Cpd. No. 4, ((2-(((5S,8S,10aR)-8-(((S)-4-amino-4-oxo-1-(4-phenylthiazol-2-yl)butyl)carbamoyl)-3-(8-(2-(2,6-dioxopiperidin-3-yl)-1-oxoisoindolin-4-yl)oct-7-ynoyl)-6-oxodecahydropyrrolo[1,2-a][1,5]diazocin-5-yl)carbamoyl)benzo[b]thiophen-5-yl)difluoromethyl)phosphonic acid], the DC50 at STAT3 was 200 nM. Moreover, the pIC50 in the experiment on MOLM-16 cells is 6.85.

Consider `NC(=O)CC[C@H](NC(=O)[C@@H]1CC[C@@H]2CCN(C(=O)CCCCCC#Cc3cccc4c3CN(C3CCC(=O)NC3=O)C4=O)C[C@H](NC(=O)c3cc4cc(C(F)(F)P(=O)(O)O)ccc4s3)C(=O)N21)c1ncc(-c2ccccc2F)s1` (stereo partly drawn) [Cpd. No. 16, ((2-(((5S,8S,10aR)-8-(((S)-4-amino-1-(5-(2-fluorophenyl)thiazol-2-yl)-4-oxobutyl)carbamoyl)-3-(8-(2-(2,6-dioxopiperidin-3-yl)-1-oxoisoindolin-4-yl)oct-7-ynoyl)-6-oxodecahydropyrrolo[1,2-a][1,5]diazocin-5-yl)carbamoyl)benzo[b]thiophen-5-yl)difluoromethyl)phosphonic acid], for which, at STAT3, the DC50 is 50 nM. For the same compound, the pIC50 in the experiment on MOLM-16 cells is 7.17.

For the compound `NC(=O)CC[C@H](NC(=O)[C@@H]1CC[C@@H]2CCN(C(=O)CCCCCC#Cc3cccc4c3CN(C3CCC(=O)NC3=O)C4=O)C[C@H](NC(=O)c3cc4cc(C(F)(F)P(=O)(O)O)ccc4s3)C(=O)N21)c1ncc(-c2ccc(Cl)cc2)s1` (stereo partly drawn) [Cpd. No. 7, ((2-(((5S,8S,10aR)-8-(((S)-4-amino-1-(5-(4-chlorophenyl)thiazol-2-yl)-4-oxobutyl)carbamoyl)-3-(8-(2-(2,6-dioxopiperidin-3-yl)-1-oxoisoindolin-4-yl)oct-7-ynoyl)-6-oxodecahydropyrrolo[1,2-a][1,5]diazocin-5-yl)carbamoyl)benzo[b]thiophen-5-yl)difluoromethyl)phosphonic acid], at STAT3, the DC50 is 50 nM.

On to `CC(C)(C)c1cnc([C@H](CCC(N)=O)NC(=O)[C@@H]2CC[C@@H]3CCN(C(=O)CCCCCC#Cc4cccc5c4CN(C4CCC(=O)NC4=O)C5=O)C[C@H](NC(=O)c4cc5cc(C(F)(F)P(=O)(O)O)ccc5s4)C(=O)N32)s1` (stereo partly drawn) [Cpd. No. 15, ((2-(((5S,8S,10aR)-8-(((S)-4-amino-1-(5-(tert-butyl)thiazol-2-yl)-4-oxobutyl)carbamoyl)-3-(8-(2-(2,6-dioxopiperidin-3-yl)-1-oxoisoindolin-4-yl)oct-7-ynoyl)-6-oxodecahydropyrrolo[1,2-a][1,5]diazocin-5-yl)carbamoyl)benzo[b]thiophen-5-yl)difluoromethyl)phosphonic acid], for which, at STAT3, the DC50 is 500 nM.

Consider `NC(=O)CC[C@H](NC(=O)[C@@H]1CC[C@@H]2CCN(C(=O)CCCCCC#Cc3cccc4c3CN(C3CCC(=O)NC3=O)C4=O)C[C@H](NC(=O)c3cc4cc(C(F)(F)P(=O)(O)O)ccc4s3)C(=O)N21)c1nc(-c2ccc(F)cc2)cs1` (stereo partly drawn) [Cpd. No. 12, ((2-(((5S,8S,10aR)-8-(((S)-4-amino-1-(4-(4-fluorophenyl)thiazol-2-yl)-4-oxobutyl)carbamoyl)-3-(8-(2-(2,6-dioxopiperidin-3-yl)-1-oxoisoindolin-4-yl)oct-7-ynoyl)-6-oxodecahydropyrrolo[1,2-a][1,5]diazocin-5-yl)carbamoyl)benzo[b]thiophen-5-yl)difluoromethyl)phosphonic acid], for which, on STAT3, the DC50 is 100 nM.

Regarding `NC(=O)CC[C@H](NC(=O)[C@@H]1CC[C@@H]2CCN(C(=O)CCCCCC#Cc3cccc4c3CN(C3CCC(=O)NC3=O)C4=O)C[C@H](NC(=O)c3cc4cc(C(F)(F)P(=O)(O)O)ccc4s3)C(=O)N21)c1nc(-c2ccc(Cl)cc2)cs1` (stereo partly drawn) [Cpd. No. 13, ((2-(((5S,8S,10aR)-8-(((S)-4-amino-1-(4-(4-chlorophenyl)thiazol-2-yl)-4-oxobutyl)carbamoyl)-3-(8-(2-(2,6-dioxopiperidin-3-yl)-1-oxoisoindolin-4-yl)oct-7-ynoyl)-6-oxodecahydropyrrolo[1,2-a][1,5]diazocin-5-yl)carbamoyl)benzo[b]thiophen-5-yl)difluoromethyl)phosphonic acid], the DC50 at STAT3 was 100 nM.
